In the assay the target is T1, 11β-HSD1 (Homo sapiens, UniProt P28845).
T1 construct: detecting cortisol generated from cortisterone by human liver microsomes; from tissue; host or cells: human liver microsomes
Briefly: In vitro inhibition of 11β-HSD1, HTRF detection of cortisol generated from cortisone by human liver microsomes. It counts as biochemical. As to conditions: 11β-HSD IC50 (nM), 1 hour at 37° C., pH 6.0, NADPH 200 μM, cortisone 80 nM, inhibition relative to carbenoxolone signal. The protocol:
Cortisol generated in the reaction is then detected with a competitive immunoassay, involving two HTRF conjugates: cortisol linked to XL665 and anti-cortisol antibody labeled with Europium cryptate. The incubation period for detection reaction was typically 2 hours. […] The ratio of the two emission signals is then calculated (Em665*10000/Em615). […] Each assay also contained a calibration curve with cortisol to transform the fluorescent data into cortisol concentrations. Percent inhibition of each compound was determined relative to the carbenoxolone signal and IC50 curves were generated.
In general terms: In TR-FRET formats the signal depends on donor and acceptor labels being close together.

By IC50 is commonly meant the concentration needed to halve the response being measured.

T1 sequence (P28845 whole entry): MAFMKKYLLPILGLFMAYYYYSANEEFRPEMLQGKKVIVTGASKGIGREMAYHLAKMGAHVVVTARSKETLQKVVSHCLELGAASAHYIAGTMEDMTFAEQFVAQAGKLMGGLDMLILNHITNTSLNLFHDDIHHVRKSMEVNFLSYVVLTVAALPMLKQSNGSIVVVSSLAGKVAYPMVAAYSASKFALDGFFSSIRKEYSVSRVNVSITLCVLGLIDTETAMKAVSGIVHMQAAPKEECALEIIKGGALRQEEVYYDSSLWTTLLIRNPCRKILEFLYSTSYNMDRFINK

Compound `CC1(C)[C@H]2Cc3c(O)cccc3[C@]1(C)CCN2C(=O)c1cccc(C(N)=O)c1` [Example 41, 3-[(2R,6S)-10-Hydroxy-6,11,11-trimethyl-1,2,5,6-tetrahydro-4H-2,6-methano-benzo[d]azocine-3-carbonyl]-benzamide] yielded a half-inhibitory concentration (IC50) of 589 nM. This counts as sub-micromolar.
Under `COC(=O)c1cc(Cl)cc(C(=O)N2CC[C@@]3(C)c4cccc(O)c4C[C@@H]2C3(C)C)c1` [Example 42, 3-Chloro-5-[(2R,6S)-10-hydroxy-6,11,11-trimethyl-1,2,5,6-tetrahydro-4H-2,6-methano-benzo[d]azocine-3-carbonyl]-benzoic acid methyl ester] stands 4530 nM; under `COC(=O)c1cc(F)cc(C(=O)N2CC[C@@]3(C)c4cccc(O)c4C[C@@H]2C3(C)C)c1` [Example 43, 3-Fluoro-5-[(2R,6S)-10-hydroxy-6,11,11-trimethyl-1,2,5,6-tetrahydro-4H-2,6-methano-benzo[d]azocine-3-carbonyl]-benzoic acid methyl ester], 1760 nM; under `CC1(C)[C@H]2Cc3c(O)cccc3[C@]1(C)CCN2C(=O)c1ccc2c(c1)NCC(=O)N2` [Example 44, 6-[(2R,6S)-10-Hydroxy-6,11,11-trimethyl-1,2,5,6-tetrahydro-4H-2,6-methano-benzo[d]azocine-3-carbonyl]-3,4-dihydro-1H-quinoxalin-2-one], 200 nM.
In the case of `CC1(C)[C@H]2Cc3c(O)cccc3[C@]1(C)CCN2C(=O)c1ccc2scnc2c1` [Example 45, Benzothiazol-5-yl-[(2R,6S)-10-hydroxy-6,11,11-trimethyl-1,2,5,6-tetrahydro-4H-2,6-methano-benzo[d]azocin-3-yl]-methanone], 384 nM corresponded to half-maximal inhibition (IC50).
Under `CC1(C)[C@H]2Cc3c(O)cccc3[C@]1(C)CCN2C(=O)c1ccc2ncsc2c1` [Example 46, Benzothiazol-6-yl-[(2R,6S)-10-hydroxy-6,11,11-trimethyl-1,2,5,6-tetrahydro-4H-2,6-methano-benzo[d]azocin-3-yl]-methanone] stands 97 nM; under `CNc1ccc(C(=O)N2CC[C@@]3(C)c4cccc(O)c4C[C@@H]2C3(C)C)cc1` [Example 48, [(2R,6S)-10-Hydroxy-6,11,11-trimethyl-1,2,5,6-tetrahydro-4H-2,6-methano-benzo[d]azocin-3-yl]-(4-methylamino-phenyl)-methanone], 364 nM.
The value for `CC1(C)[C@H]2Cc3c(O)cccc3[C@]1(C)CCN2C(=O)c1ccc2[nH]ccc2c1` [Example 49, [(2R,6S)-10-Hydroxy-6,11,11-trimethyl-1,2,5,6-tetrahydro-4H-2,6-methano-benzo[d]azocin-3-yl]-(1H-indol-5-yl)-methanone] was 168 nM; that for `COC(=O)c1ccc(C(=O)N2CC[C@@]3(C)c4cccc(O)c4C[C@@H]2C3(C)C)cc1` [Example 50, 4-[(2R,6S)-10-Hydroxy-6,11,11-trimethyl-1,2,5,6-tetrahydro-4H-2,6-methano-benzo[d]azocine-3-carbonyl]-benzoic acid methyl ester] was 3000 nM.
Compound `CC12CCN(C(=O)c3ccc4nc[nH]c4c3)C(Cc3ccc(O)cc31)C2` (centres unmarked) [Example 51, (3H-Benzoimidazol-5-yl)-(8-hydroxy-6-methyl-1,2,5,6-tetrahydro-4H-2,6-methano-benzo[d]azocin-3-yl)-methanone] displayed a concentration for half-maximal inhibition (IC50) of 629 nM.
`C[C@@H]1[C@H]2Cc3ccc(O)cc3[C@]1(C)CCN2C(=O)c1ccc2nc[nH]c2c1` [Example 52, (3H-Benzoimidazol-5-yl)-[(2R,6R,11S)-8-hydroxy-6,11-dimethyl-1,2,5,6-tetrahydro-4H-2,6-methano-benzo[d]azocin-3-yl]-methanone] yielded a half-inhibitory concentration (IC50) of 101 nM.
Under `C[C@H]1[C@@H]2Cc3ccc(O)cc3[C@@]1(C)CCN2C(=O)c1ccc2nc[nH]c2c1` [Example 53, (3H-Benzoimidazol-5-yl)-[(2S,6S,11R)-8-hydroxy-6,11-dimethyl-1,2,5,6-tetrahydro-4H-2,6-methano-benzo[d]azocin-3-yl]-methanone] stands 321 nM; under `C[C@@H]1[C@@H]2Cc3ccc(O)cc3[C@@]1(C)CCN2C(=O)c1ccc2nc[nH]c2c1` [Example 54, (3H-Benzoimidazol-5-yl)-(8-hydroxy-6,11-dimethyl-1,2,5,6-tetrahydro-4H-2,6-methano-benzo[d]azocin-3-yl)-methanone], 529 nM; under `O=C(c1ccc2nc[nH]c2c1)N1CCC2CC1Cc1ccc(O)cc12` (centres unmarked) [Example 55, (3H-Benzoimidazol-5-yl)-(8-hydroxy-1,2,5,6-tetrahydro-4H-2,6-methano-benzo[d]azocin-3-yl)-methanone], 746 nM.
As for `CC1(C)C2Cc3ccc(O)cc3C1(O)CCN2C(=O)c1ccc2nc[nH]c2c1` (centres unmarked) [Example 56, (3H-Benzoimidazol-5-yl)-(6,8-dihydroxy-11,11-dimethyl-1,2,5,6-tetrahydro-4H-4,6-methano-benzo[d]azocin-3-vl)-methanone], the concentration for half-maximal inhibition (IC50) stood at 725 nM.
Under `CC1(C)C2Cc3ccccc3C1(O)CCN2C(=O)c1ccc2nc[nH]c2c1` (centres unmarked) [Example 57, (3H-Benzoimidazol-5-yl)-(6-hydroxy-11,11-dimethyl-1,2,5,6-tetrahydro-4H-2,6-methano-benzo[d]azocin-3-yl)-methanone] stands 137 nM; under `CC12CCN(C(=O)c3ccc4nc[nH]c4c3)C(Cc3ccc(O)cc31)C2(C)C` (centres unmarked) [Example 58, (3H-Benzoimidazol-5-yl)-(8-hydroxy-6,11,11-trimethyl-1,2,5,6-tetrahydro-4H-2,6-methano-benzo[d]azocin-3-yl)-methanone], 62 nM; under `CC12CCN(C(=O)c3ccc4nc[nH]c4c3)C(Cc3cc(O)ccc31)C2(C)C` (centres unmarked) [Example 59, (3H-Benzoimidazol-5-yl)-(9-hydroxy-6,11,11-trimethyl-1,2,5,6-tetrahydro-4H-2,6-methano-benzo[d]azocin-3-yl)-methanone], 36 nM.
The value for `O=C(c1ccc2nc[nH]c2c1)N1CCC2CC1Cc1ccccc12` (centres unmarked) [Example 60, (3H-Benzoimidazol-5-yl)-(1,2,5,6-tetrahydro-4H-2,6-methano-benzo[d]azocin-3-yl)-methanone] was 228 nM; that for `Cc1ccc2c(c1)C1(C)CCN(C(=O)c3ccc4nc[nH]c4c3)C(C2)C1(C)C` (centres unmarked) [Example 69, (3H-Benzoimidazol-5-yl)-(6,8,11,11-tetramethyl-1,2,5,6-tetrahydro-4H-2,6-methano-benzo[d]azocin-3-yl)-methanone] was 105 nM.
The value for `CC12CCN(C(=O)c3ccc4nc[nH]c4c3)C(Cc3ccc(F)cc31)C2(C)C` (centres unmarked) [Example 70, (3H-Benzoimidazol-5-yl)-(8-fluoro-6,11,11-trimethyl-1,2,5,6-tetrahydro-4H-2,6-methano-benzo[d]azocin-3-yl)-methanone] was 362 nM.
`COc1cc2c(cc1O)CC1N(C(=O)c3ccc4nc[nH]c4c3)CCC2(C)C1(C)C` (centres unmarked) [Example 71, (3H-Benzoimidazol-5-yl)-(9-hydroxy-8-methoxy-6,11,11-trimethyl-1,2,5,6-tetrahydro-4H-2,6-methano-benzo[d]azocin-3-yl)-methanone] displayed an IC50 of 47 nM. Against the preceding compound, the IC50 is about 7.7-fold lower.
Compound `COc1cc2c(cc1OC)C1(C)CCN(C(=O)c3ccc4nc[nH]c4c3)C(C2)C1(C)C` (centres unmarked) [Example 72, (3H-Benzoimidazol-5-yl)-(8,9-dimethoxy-6,11,11-trimethyl-1,2,5,6-tetrahydro-4H-2,6-methano-benzo[d]azocin-3-yl)-methanone] registered an IC50 of 148 nM.
